Activity calls are given as the source filed them. How the calls were made is not given here.
Tested on: CCRIS mutagenicity, Ames/micronucleus/aberration tests
Test: CCRIS mutagenicity studies
[1] = Test System: AMES SALMONELLA TYPHIMURIUM, Strain/Indicator: TA98, Metabolic Activation: NONE, Method: PREINCUBATION
[2] = Test System: AMES SALMONELLA TYPHIMURIUM, Strain/Indicator: TA100, Metabolic Activation: NONE, Method: PREINCUBATION
[3] = Test System: AMES SALMONELLA TYPHIMURIUM, Strain/Indicator: TA98, Metabolic Activation: NONE, Method: STANDARD PLATE
[4] = Test System: AMES SALMONELLA TYPHIMURIUM, Strain/Indicator: TA100, Metabolic Activation: NONE, Method: STANDARD PLATE

Measured: mutagenic call

O=[N+]([O-])c1cc([N+](=O)[O-])c2ccccc2c1
active: Test System: AMES SALMONELLA TYPHIMURIUM, Strain/Indicator: TA98, Metabolic Activation: HAMSTER, LIVER, S-9, AROCLOR 1254 (30%), Method: PREINCUBATION active; positive | [1] active; positive | Test System: AMES SALMONELLA TYPHIMURIUM, Strain/Indicator: TA98, Metabolic Activation: RAT, LIVER, S-9, AROCLOR 1254 (30%), Method: PREINCUBATION active; positive | Test System: AMES SALMONELLA TYPHIMURIUM, Strain/Indicator: TA100, Metabolic Activation: HAMSTER, LIVER, S-9, AROCLOR 1254 (30%), Method: PREINCUBATION active; positive | [2] active; positive | Test System: AMES SALMONELLA TYPHIMURIUM, Strain/Indicator: TA100, Metabolic Activation: RAT, LIVER, S-9, AROCLOR 1254 (30%), Method: PREINCUBATION active; positive

Nc1ccn([C@@H]2O[C@H](CO)[C@@H](O)C2O)c(=O)n1 (stereo partly drawn)
inactive: [3] inactive; negative | Test System: AMES SALMONELLA TYPHIMURIUM, Strain/Indicator: TA98, Metabolic Activation: S-9, Method: STANDARD PLATE inactive; negative | [4] inactive; negative | Test System: AMES SALMONELLA TYPHIMURIUM, Strain/Indicator: TA100, Metabolic Activation: S-9, Method: STANDARD PLATE inactive; negative | Test System: AMES SALMONELLA TYPHIMURIUM, Strain/Indicator: TA102, Metabolic Activation: NONE, Method: STANDARD PLATE inactive; negative | Test System: AMES SALMONELLA TYPHIMURIUM, Strain/Indicator: TA1537, Metabolic Activation: NONE, Method: STANDARD PLATE inactive; negative | Test System: AMES SALMONELLA TYPHIMURIUM, Strain/Indicator: TA1537, Metabolic Activation: S-9, Method: STANDARD PLATE inactive; negative | Test System: CHINESE HAMSTER V-79, Strain/Indicator: V-79 (HGPRT)/6-THIOGUANINE, Metabolic Activation: NONE inactive; negative | Test System: CHINESE HAMSTER V-79, Strain/Indicator: V-79/6-THIOGUANINE, Metabolic Activation: RAT, LIVER, HEPATOCYTES, Method: SUSPENSION/PLATE inactive; negative
active: End Point: IN VITRO MICRONUCLEUS, Test System: CHINESE HAMSTER V79 CELLS, Metabolic Activation: NONE active; positive | End Point: IN VITRO MICRONUCLEUS, Test System: V79 CELLS, Metabolic Activation: NONE active; positive | End Point: In vitro chromosomal aberrations, Test System: Human lymphocytes, Metabolic Activation: None active; positive (structural changes) (effects significant without chm) | End Point: In vitro micronucleus, Test System: Human lymphoblastoid TK6 cells, Metabolic Activation: None active; positive (p<0.001) | Test System: CHINESE HAMSTER V-79, Strain/Indicator: V-79/6-THIOGUANINE, Metabolic Activation: NONE, Method: SUSPENSION/PLATE active; positive | Test System: CHINESE HAMSTER V-79, Strain/Indicator: V-79/8-AZAGUANINE, Metabolic Activation: NONE, Method: STANDARD PLATE active; positive | Test System: E. COLI, Strain/Indicator: WP2 (HCR), Metabolic Activation: NONE, Method: STANDARD PLATE active; positive | Test System: E. COLI, Strain/Indicator: WP2 (HCR), Metabolic Activation: S-9, Method: STANDARD PLATE active; positive | Test System: MOUSE LYMPHOMA, Strain/Indicator: L5178Y (TK+/TK-), Metabolic Activation: NONE, Method: MICROWELL active; positive | Test System: MOUSE LYMPHOMA, Strain/Indicator: L5178Y (TK+/TK-), Metabolic Activation: NONE, Method: SUSPENSION/PLATE active; positive | Test System: MOUSE LYMPHOMA, Strain/Indicator: L5178Y (TK+/TK-), Metabolic Activation: S-9, Method: MICROWELL active; positive

c1ccc2n[nH]nc2c1
active: Test System: AMES SALMONELLA TYPHIMURIUM, Strain/Indicator: TA1535, Metabolic Activation: HAMSTER, LIVER, S-9, AROCLOR 1254 (10%), Method: PREINCUBATION active; positive | Test System: AMES SALMONELLA TYPHIMURIUM, Strain/Indicator: TA1535, Metabolic Activation: RAT, LIVER, S-9, AROCLOR 1254 (10%), Method: PREINCUBATION active; positive
inactive: Test System: AMES SALMONELLA TYPHIMURIUM, Strain/Indicator: TA97, Metabolic Activation: HAMSTER, LIVER, S-9, AROCLOR 1254 (10%), Method: PREINCUBATION inactive; negative | Test System: AMES SALMONELLA TYPHIMURIUM, Strain/Indicator: TA97, Metabolic Activation: NONE, Method: PREINCUBATION inactive; negative | Test System: AMES SALMONELLA TYPHIMURIUM, Strain/Indicator: TA97, Metabolic Activation: RAT, LIVER, S-9, AROCLOR 1254 (10%), Method: PREINCUBATION inactive; negative | Test System: AMES SALMONELLA TYPHIMURIUM, Strain/Indicator: TA98, Metabolic Activation: HAMSTER, LIVER, S-9, AROCLOR 1254 (10%), Method: PREINCUBATION inactive; negative | [1] inactive; negative | Test System: AMES SALMONELLA TYPHIMURIUM, Strain/Indicator: TA98, Metabolic Activation: RAT, LIVER, S-9, AROCLOR 1254 (10%), Method: PREINCUBATION inactive; negative | Test System: AMES SALMONELLA TYPHIMURIUM, Strain/Indicator: TA100, Metabolic Activation: HAMSTER, LIVER, S-9, AROCLOR 1254 (10%), Method: PREINCUBATION inactive; negative | [2] inactive; negative | Test System: AMES SALMONELLA TYPHIMURIUM, Strain/Indicator: TA100, Metabolic Activation: RAT, LIVER, S-9, AROCLOR 1254 (10%), Method: PREINCUBATION inactive; negative | Test System: AMES SALMONELLA TYPHIMURIUM, Strain/Indicator: TA1535, Metabolic Activation: NONE, Method: PREINCUBATION inactive; negative | Test System: E. COLI, Strain/Indicator: WP2 UVRA, Metabolic Activation: MOUSE, LIVER, S-9, AROCLOR 1254, Method: STANDARD PLATE inactive; negative

c1ccc2c(c1)Oc1ccccc1O2
inactive: Test System: AMES SALMONELLA TYPHIMURIUM, Strain/Indicator: TA98(1,8-DNP6), Metabolic Activation: RAT, LIVER, S-9, PCB, Method: SUSPENSION inactive; negative | Test System: AMES SALMONELLA TYPHIMURIUM, Strain/Indicator: TA98(NR), Metabolic Activation: RAT, LIVER, S-9, PCB, Method: SUSPENSION inactive; negative | Test System: AMES SALMONELLA TYPHIMURIUM, Strain/Indicator: TA98, Metabolic Activation: NONE, Method: SUSPENSION inactive; negative | Test System: AMES SALMONELLA TYPHIMURIUM, Strain/Indicator: TA98, Metabolic Activation: RAT, LIVER, S-9, PCB, Method: SUSPENSION inactive; negative | Test System: AMES SALMONELLA TYPHIMURIUM, Strain/Indicator: TA100, Metabolic Activation: NONE, Method: SUSPENSION inactive; negative | Test System: AMES SALMONELLA TYPHIMURIUM, Strain/Indicator: TA100, Metabolic Activation: RAT, LIVER, S-9, PCB, Method: SUSPENSION inactive; negative

O=C(O)C1Cc2c([nH]c3ccccc23)C(CO)N1 (stereo not drawn)
inactive: Test System: AMES SALMONELLA TYPHIMURIUM, Strain/Indicator: TA97, Metabolic Activation: NONE, Method: STANDARD PLATE inactive; negative | Test System: AMES SALMONELLA TYPHIMURIUM, Strain/Indicator: TA97, Metabolic Activation: RAT, LIVER, S-9, AROCLOR 1254, Method: STANDARD PLATE inactive; negative | [3] inactive; negative | Test System: AMES SALMONELLA TYPHIMURIUM, Strain/Indicator: TA98, Metabolic Activation: RAT, LIVER, S-9, AROCLOR 1254, Method: STANDARD PLATE inactive; negative | [4] inactive; negative | Test System: AMES SALMONELLA TYPHIMURIUM, Strain/Indicator: TA100, Metabolic Activation: RAT, LIVER, S-9, AROCLOR 1254, Method: STANDARD PLATE inactive; negative

CN(CCCC(O)c1cccnc1)N=O (stereo not drawn)
active: Test System: AMES SALMONELLA TYPHIMURIUM, Strain/Indicator: TA1535, Metabolic Activation: HAMSTER LIVER S-9, AROCLOR 1254 (5% OR 10%), Method: MICROSUPENSION active; positive | Test System: AMES SALMONELLA TYPHIMURIUM, Strain/Indicator: TA1535, Metabolic Activation: RAT LIVER S-9, AROCLOR 1254 (5% OR 10%), Method: MICROSUSPENSION active; positive

— PubChem BioAssay AID1259407 (Chemical Carcinogenesis Research Information System (CCRIS), 2018)
